Data on 7 molecules can be found in ChEMBL document CHEMBL5143746, “SJPYT-195: A Designed Nuclear Receptor Degrader That Functions as a Molecular Glue Degrader of GSPT1” (ACS Med Chem Lett, 2022).

pEC50: −log10 of the molar value. Activity calls are given as the source filed them. The rule behind the calls is not given here.

For series [1], the target named is Protein cereblon/DNA damage-binding protein 1 (Homo sapiens, UniProt Q96SW2). As to the kind of experiment: Displacement of BODIPY FL thalidomide from 6His-tagged CRBN/DDB1 (unknown origin) expressed in baculovirus infected Sf9 insect cells incubated for 1 min under shaking condition followed by 60 mins incubation under dark condition by TR-FRET assay. Background: Time-resolved FRET reads energy transfer from a long-lived donor to a nearby acceptor.
Protein cereblon/DNA damage-binding protein 1, sequence (Q96SW2 whole entry): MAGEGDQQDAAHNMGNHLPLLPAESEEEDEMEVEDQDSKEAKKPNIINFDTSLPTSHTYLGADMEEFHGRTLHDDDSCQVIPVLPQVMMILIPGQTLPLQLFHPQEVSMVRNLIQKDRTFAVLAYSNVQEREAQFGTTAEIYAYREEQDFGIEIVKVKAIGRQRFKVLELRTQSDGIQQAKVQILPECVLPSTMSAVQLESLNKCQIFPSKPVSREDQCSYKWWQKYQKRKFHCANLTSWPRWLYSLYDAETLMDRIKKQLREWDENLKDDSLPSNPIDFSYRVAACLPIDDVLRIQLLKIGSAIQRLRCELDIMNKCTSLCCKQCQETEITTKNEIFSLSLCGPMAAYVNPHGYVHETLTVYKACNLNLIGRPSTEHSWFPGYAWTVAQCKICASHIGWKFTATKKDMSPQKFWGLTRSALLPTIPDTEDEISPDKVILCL
Protein cereblon/DNA damage-binding protein 1, sequence (Q16531 whole entry, further chain): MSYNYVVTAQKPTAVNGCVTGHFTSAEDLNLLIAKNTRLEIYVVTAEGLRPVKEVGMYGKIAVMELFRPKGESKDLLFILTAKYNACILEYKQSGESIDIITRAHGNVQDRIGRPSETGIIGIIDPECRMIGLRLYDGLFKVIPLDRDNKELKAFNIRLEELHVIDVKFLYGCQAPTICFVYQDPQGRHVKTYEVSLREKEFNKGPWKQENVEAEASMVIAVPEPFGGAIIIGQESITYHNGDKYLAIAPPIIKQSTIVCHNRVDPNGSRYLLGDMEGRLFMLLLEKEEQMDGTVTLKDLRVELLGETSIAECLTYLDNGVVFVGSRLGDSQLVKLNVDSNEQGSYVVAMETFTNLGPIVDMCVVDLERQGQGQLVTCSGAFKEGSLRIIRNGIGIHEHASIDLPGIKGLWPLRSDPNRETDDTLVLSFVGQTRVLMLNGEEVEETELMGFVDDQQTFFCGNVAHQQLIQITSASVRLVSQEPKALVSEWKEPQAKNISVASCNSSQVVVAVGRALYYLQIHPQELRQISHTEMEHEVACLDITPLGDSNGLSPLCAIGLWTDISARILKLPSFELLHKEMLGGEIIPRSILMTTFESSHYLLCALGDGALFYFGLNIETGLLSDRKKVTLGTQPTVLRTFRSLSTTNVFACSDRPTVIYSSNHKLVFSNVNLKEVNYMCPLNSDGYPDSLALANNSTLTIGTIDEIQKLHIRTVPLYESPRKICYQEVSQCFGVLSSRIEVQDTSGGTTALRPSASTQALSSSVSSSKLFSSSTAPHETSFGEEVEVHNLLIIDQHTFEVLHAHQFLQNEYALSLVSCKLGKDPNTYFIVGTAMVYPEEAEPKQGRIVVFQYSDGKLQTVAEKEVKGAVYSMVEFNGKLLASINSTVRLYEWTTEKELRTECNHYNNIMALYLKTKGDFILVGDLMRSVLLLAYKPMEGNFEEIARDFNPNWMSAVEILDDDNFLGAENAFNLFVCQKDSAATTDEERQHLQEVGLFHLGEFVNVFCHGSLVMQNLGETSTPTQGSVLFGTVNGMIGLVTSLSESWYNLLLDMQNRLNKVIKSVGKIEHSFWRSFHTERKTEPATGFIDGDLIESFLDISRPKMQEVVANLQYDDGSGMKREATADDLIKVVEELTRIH

The subject of series [2] is SNU-C4. As to the kind of experiment: Down regulation of FOS expression in PXR knock in human SNU-C4 cells at 5 uM measured after 12 hrs by TMT-MS analysis. The format is functional, cell-based.
The target of series [3] is T1, Nuclear receptor subfamily 1 group I member 2 (Homo sapiens, UniProt O75469).
T1 sequence (O75469 whole entry): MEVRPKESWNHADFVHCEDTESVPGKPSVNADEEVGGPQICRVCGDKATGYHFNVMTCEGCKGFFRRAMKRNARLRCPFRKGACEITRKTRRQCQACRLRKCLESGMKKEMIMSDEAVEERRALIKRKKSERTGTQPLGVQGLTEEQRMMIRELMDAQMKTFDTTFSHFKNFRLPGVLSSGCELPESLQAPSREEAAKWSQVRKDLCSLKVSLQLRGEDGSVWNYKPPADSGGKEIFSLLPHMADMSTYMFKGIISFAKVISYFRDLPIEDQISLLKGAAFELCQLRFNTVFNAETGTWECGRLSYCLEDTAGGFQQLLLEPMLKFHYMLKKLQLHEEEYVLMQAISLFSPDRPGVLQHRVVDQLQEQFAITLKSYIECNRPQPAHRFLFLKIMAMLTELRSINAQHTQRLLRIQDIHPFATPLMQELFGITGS
The series is described as follows: Induction of PXR degradation in PXR knock in human SNU-C4 cells at 5 uM measured after 12 hrs by Western blot analysis relative to control. Format: cell-based. The following applies: snu-c4, 12 h. In general terms: In western blotting, separated proteins are transferred to a membrane and probed.

Series [4] deals with SNU-C4. The series is described as follows: Up regulation of CYP1A1 expression in PXR knock in human SNU-C4 cells at 5 uM measured after 12 hrs by TMT-MS analysis. Format: functional, cell-based.
The test system of series [5] is SNU-C4. As to the kind of experiment: Up regulation of BRIP1 expression in PXR knock in human SNU-C4 cells at 5 uM measured after 12 hrs by TMT-MS analysis. The format is functional, cell-based.
The test system of series [6] is SNU-C4. The series is described as follows: […] of GSPT2 expression in PXR knock in human SNU-C4 cells at 5 uM measured after 12 hrs by TMT-MS analysis. The format is functional, cell-based.
For series [7], the target named is T1, Nuclear receptor subfamily 1 group I member 2. The series is described as follows: Induction of PXR degradation in PXR knock in human SNU-C4 cells at 10 uM measured after 2 to 48 hrs by Western blot analysis. The format is cell-based. The following applies: snu-c4, 10 µM, time 2-48 hrs.
Series [8] deals with Protein cereblon/Peptidyl-prolyl cis-trans isomerase FKBP1A/Nuclear receptor subfamily 1 group I member 2 (Homo sapiens, UniProt P62942+O75469+Q96SW2, F37V). The series is described as follows: Molecular glue activity at HA-tagged CLR4-CRBN/2HA-tagged PXR fused HiBiT-tagged FKBP12 (F36V) mutant (unknown origin) expressed in HepG2 cells assessed as induction of PXR degradation measured after 24 hrs by Nano-Glo HiBiT assay. Format: cell-based. The following applies: hepg2, 24 h, DDE = dose-dependent effect.
Protein cereblon/Peptidyl-prolyl cis-trans isomerase FKBP1A/Nuclear receptor subfamily 1 group I member 2, sequence (P62942 2-108 F37V limits assumed, stated change not applied, one chain of several): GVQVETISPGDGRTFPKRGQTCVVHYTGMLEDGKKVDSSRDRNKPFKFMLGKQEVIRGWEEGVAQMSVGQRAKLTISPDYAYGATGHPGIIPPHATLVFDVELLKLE
Protein cereblon/Peptidyl-prolyl cis-trans isomerase FKBP1A/Nuclear receptor subfamily 1 group I member 2, sequence (Q96SW2 whole entry, stated change not applied, one chain of several, the tested form may be a part): as the sequence (Q96SW2 whole entry) above

The test system of series [9] is SNU-C4. As to the kind of experiment: Down regulation of PXR mRNA expression in PXR knock in human SNU-C4 cells at 10 uM measured after 2 to 48 hrs by RT-qPCR analysis. The format is functional, cell-based. The following applies: time 2-48 hrs. For orientation: Quantitative PCR measures a nucleic acid by following its amplification.
For series [10], the system named is SNU-C4. As to the kind of experiment: […] of ZFP91 expression in PXR knock in human SNU-C4 cells at 5 uM measured after 12 hrs by TMT-MS analysis. The format is functional, cell-based.
The subject of series [11] is SNU-C4. The series is described as follows: […] of GSPT1 expression in PXR knock in human SNU-C4 cells at 5 uM measured after 12 hrs by TMT-MS analysis. Format: functional, cell-based.
Series [12] addresses Eukaryotic peptide chain release factor GTP-binding subunit ERF3A (Homo sapiens) (UniProt P15170). The series is described as follows: Induction of GSPT1 degradation in PXR knock in human SNU-C4 cells at 0.001 to 10 uM measured after 24 hrs by Western blot analysis. Format: cell-based. The following applies: dose 0.001-10 µM.
The test system of series [13] is SNU-C4. The series is described as follows: Cytotoxicity against PXR knock in human SNU-C4 cells measured after 72 hrs by celltiter-glo assay. The format is functional.

Eukaryotic peptide chain release factor GTP-binding subunit ERF3A (Homo sapiens), sequence (P15170 whole entry): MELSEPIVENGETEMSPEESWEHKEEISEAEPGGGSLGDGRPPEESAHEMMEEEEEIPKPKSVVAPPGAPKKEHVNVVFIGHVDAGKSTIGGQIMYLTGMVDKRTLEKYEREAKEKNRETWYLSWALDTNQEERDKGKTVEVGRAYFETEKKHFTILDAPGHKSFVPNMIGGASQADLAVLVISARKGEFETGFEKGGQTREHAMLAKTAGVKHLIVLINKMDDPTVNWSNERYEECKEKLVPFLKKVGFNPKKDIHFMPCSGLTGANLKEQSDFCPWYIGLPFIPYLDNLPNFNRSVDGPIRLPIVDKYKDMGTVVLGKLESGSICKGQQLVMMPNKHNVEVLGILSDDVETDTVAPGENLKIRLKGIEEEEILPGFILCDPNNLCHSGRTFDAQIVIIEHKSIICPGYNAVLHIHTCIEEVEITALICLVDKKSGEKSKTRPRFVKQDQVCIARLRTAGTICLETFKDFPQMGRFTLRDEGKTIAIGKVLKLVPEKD

As usually defined, the pEC50 is −log10 of the EC50, conventionally taken in molar units. A higher pEC50 goes with a low EC50. `CC(C)(C)c1cc(N)cc(Oc2cccc3c2C(=O)N(C2CCC(=O)NC2=O)C3=O)c1` (centres undefined): in [1], the negative-log EC50 (pEC50) was 7.85.

Take `COc1ccc(OC)c(-n2nnc(C(=O)Nc3cc(OCC(=O)Nc4cccc5c4C(=O)N(C4CCC(=O)NC4=O)C5=O)cc(C(C)(C)C)c3)c2C)c1` (centres undefined): in [1], the pEC50 was under 6.48.

In series [1], `CC(=O)Nc1cc(Nc2cccc3c2C(=O)N(C2CCC(=O)NC2=O)C3=O)cc(C(C)(C)C)c1` (centres undefined) had a negative logarithm of the EC50 (pEC50) of 8.49.

For the molecule `COc1ccc(OC)c(-n2nnc(C(=O)Nc3cc(NC(=O)Nc4cccc5c4C(=O)N(C4CCC(=O)NC4=O)C5=O)cc(C(C)(C)C)c3)c2C)c1` (centres undefined), the pEC50 in series [1] is 6.39.

For the molecule `COc1ccc(OC)c(-n2nnc(C(=O)Nc3cc(NC(=O)CNc4cccc5c4C(=O)N(C4CCC(=O)NC4=O)C5=O)cc(C(C)(C)C)c3)c2C)c1` (centres undefined), the pEC50 in series [1] was 7.82.

For the molecule `COc1ccc(OC)c(-n2nnc(C(=O)Nc3cc(NCCNc4cccc5c4C(=O)N(C4CCC(=O)NC4=O)C5=O)cc(C(C)(C)C)c3)c2C)c1` (centres undefined), in [1], the pEC50 is 7.62.

One may read the CC50 as the concentration at which the toxic effect on the cells reaches its halfway point. Take `COc1ccc(OC)c(-n2nnc(C(=O)Nc3cc(Oc4cccc5c4C(=O)N(C4CCC(=O)NC4=O)C5=O)cc(C(C)(C)C)c3)c2C)c1` (centres undefined): the result in the series on SNU-C4 [2], in the series with SNU-C4 [4], in the series with SNU-C4 [5], in the series with SNU-C4 [6], in the series on SNU-C4 [9] and with SNU-C4 [10] was Active. Moreover, the outcome (in the series on SNU-C4 [11]; in series [12]) was Active. The Activity is 50% in series [3], “Active” in [7] and “Dde” in [8]. Also, in series [1], the negative logarithm of the EC50 (pEC50) was 7.51. For the same molecule, the CC50 in the series with SNU-C4 [13] was determined as 3.3 nM.
